One assay concerns tubulin. The assay can be described thus: Tubulin polymerization (inhibition) assay kit. In kind it is biochemical. As to conditions: for effect on tubulin polymerization curves (RFU): compounds 5 µM, vs control and paclitaxel; for IC50: n = 2. On the procedure: To evaluate the effect of the compounds on tubulin polymerization, the Tubulin Polymerization Assay Kit (Cytoskeleton Inc.) was used according to the manufacturer's instructions. Briefly, 5 µL of the compounds (final concentration ranging from 0.1 to 100 µM) were pipetted per well into a pre‐warmed 96‐well black‐bottom plate at 37°C. After 1 min, 55 µL of the tubulin reaction mix (1X Buffer 1, 0.7X Tubulin Glycerol Buffer, 1 mM GTP, and 2 mg/mL tubulin) was added to each well. Next, after 5 s of shaking, fluorescence detection (excitation: 340–360 nm, emission: 410–460 nm) was performed using a microplate fluorimeter. […] Data were plotted, and IC₅₀ values were determined by nonlinear regression using GraphPad Prism software 9.0.
^c Tubulin polymerization was evaluated using a commercial assay kit, following standard procedures. Compounds were incubated with tubulin, and fluorescence was measured over time to generate kinetic curves and determine the maximum polymerization rate (Vmax). These experiments were carried out in duplicate.

The test system of assay [1] is BT‐20 breast cancer cells. The assay can be described thus: Western blot of cell‐cycle, apoptosis and signaling proteins. In kind it is cell-based. As to conditions: 2.5 µM for 24 h. The method, then: Cells were seeded in 10 cm plates (1.5 × 10⁶ cells/plate) and incubated for 24 h. Subsequently, the cells were treated with the compounds at a concentration of 2.5 µM for 24 h. After treatment, the cells were collected, and the proteins were isolated. A total of 30 µg of proteins were separated electrophoretically on a sodium dodecyl sulfate‐polyacrylamide gel (SDS‐PAGE) and transferred onto a polyvinylidene fluoride (PVDF) membrane (GE Healthcare) using the PowerBlotter Station (Invitrogen) according to the manufacturer's recommendations. After transfer, the membrane was blocked with a 5% (w/v) nonfat milk solution in TBS‐T (0.1 M Tris (pH 7.5), 0.9% NaCl, 0.1% Tween‐20) at room temperature for 1 h under gentle agitation. The membrane was then washed with TBS‐T and incubated with primary antibodies under agitation for approximately 16 h at 4°C. The primary antibodies used were: c‐Myc (#5605), ß‐tubulin (#2128), p21 (#2947), Cyclin D1 (#2978), Bcl‐2 (#15071), p‐AKT ser473 (#4058), and GAPDH (#2118) (Cell Signaling Technology). After primary antibody incubation, the membranes were washed with TBS‐T and incubated at room temperature for 1 h in a TBS‐T solution containing 5% nonfat milk and the HRP‐conjugated secondary antibody. Following the washes with TBS‐T, the membranes were incubated with the SuperSignal West Dura substrate (Thermo Scientific). Immunodetection was analyzed using the ChemiDoc imaging system (Bio‐Rad).

What is called IC50 is the concentration at which inhibition is half-maximal. Read a low IC50 as greater potency.

On to `COc1ccc2c(C(=O)c3cc(OC)c(OC)c(OC)c3)c(C(F)(F)F)cn2c1` [Compound 8e, [6‐methoxy‐2‐(trifluoromethyl)indolizin‐1‐yl](3,4,5‐trimethoxyphenyl)methanone], for which, in the assay on tubulin, the “effect on tubulin polymerization curves (RFU)” value was “most potent” and 9.3 µM corresponded to half-maximal inhibition (IC50). For the same compound, in assay [1], the “Bcl‐2 levels” value is “decrease”, the “cyclin D1 levels” value is listed as “markedly decreased” and the p21 expression result was “upregulated”.

As for `CCCc1cn2cc(OC)ccc2c1C(=O)c1cc(OC)c(OC)c(OC)c1` [Compound 8h, (6‐methoxy‐2‐propylindolizin‐1‐yl)(3,4,5‐trimethoxyphenyl)methanone], in the assay with tubulin, the “effect on tubulin polymerization curves (RFU)” value is reported as “most potent” and the IC50 is 10.9 µM. In assay [1], the “Bcl‐2 levels” value is listed as “decrease”, the “cyclin D1 levels” value is “markedly decreased” and the p21 expression entry is listed as “upregulated”.

The values are drawn from PMC12673918, “Design, Synthesis, and Selective Antiproliferative Activity of Indolizine Derivatives as Microtubule Destabilizers” (Archiv Der Pharmazie, 2025).
